# Test results: patent publication US20120283313A1, “INHIBITION AND TREATMENT OF PROSTATE CANCER METASTASIS” (NORTHWESTERN UNIVERSITY, priority 2007, published 2012)
# Entries after “also recorded” stand apart in the source; their conditions may differ. Where two headings read alike, the source gives them in different places.
# What was measured:
# [1] = system: PC3M cells; test: quantitative image analysis of nuclear morphology, mouse tissue; format: in vivo, mice; conditions: 250 mg genistein vs controls
# Text: Change in cell morphology is a generally recognized measure of change in cell adhesion. Compounds which increase cell adhesion of prostate cancer cells in vivo may inhibit prostate cancer metastasis. […] Quantitative image analysis according to established methods was used to measure in vivo changes in nuclear morphology in the prostate. (Bartels, et al., Prostate, 48:144-55, (2001); Boone, et al., Urology, 57:129-31 (2001); Bartels, et al., Anal. Quant. Cytol. Histol. 20:397-406 (1998); Bartels et al., Anal. Quant. Cytol. Histol. 20:389-96; Veltri, et al., J. Cell Biochem. Suppl., 151-57 (2000); herein incorporated by reference in their entireties).
# Mouse: From the mouse experiment of Example 5, primary (prostate gland) and metastatic (local lymph nodes) tissue was Feulgen-stained, and the nuclear morphology of PC3M cells was quantitated on a ChromaVision ACIS® II Image Analysis System. […] Specifically, for lymph node: cell area increased by 19.5±2.1%, cell length by 9.1±1.1%, and cell width by 9.5±1.1% (p:S 0.01 for all). For primary tumor: cell length increased by 3.0±1.1% (p:S 0.05).
# [2] = system: prostate epithelial cells; test: Phase 2 trial: nuclear morphology of prostate epithelial cells; format: in vivo, human; conditions: men, genistein treated vs controls
# Text: Though morphologically “normal,” these cells are present within organs with PCa, have pre-cancer molecular changes, and represent an appropriate target cell type for therapy that inhibits a process associated with PCa progression, in this case, development of the metastatic phenotype. […] These findings are consistent with its effects in vitro and in mice.
# [3] = system: MEK4; test: TGFβ stimulated phosphorylation of MEK4 in vivo; format: cell-based
# Procedure: Phosphorylation by MEK4 (FIG. 4A) and phosphorylation of MEK4 (FIG. 7) was assayed. The Upstate Biotechnology MEK4 assay system was used to measure inhibition of MEK4 activity. Phosphorylation of MEK4 in vivo was assayed using standard techniques.
# [4] = mice, free about a tenth of total
# [5] = system: human PC3-M PCa cells; test: orthotopic PC3-M implantation metastasis model in athymic mice
# [6] = system: human prostate cancer (PCa) cell lines; test: cell invasion assay of PCa cell lines with genistein / siMEK4; format: cell-based
# Text: MEK expression was examined in six human prostate cancer (PCa) cell lines: PC3 and PC3-M metastatic PCa cells, 1532CPTX and 1542 CPTX immortalized localized PCa cells, and 1532 NPTX and 1542 NPTX immortalized normal epithelial cells. The last four cell lines are primary cells, are HPV transformed, and thus represent early stages of prostate carcinogenesis. They provide representative members of the metastatic phenotype, as well as members of early state phenotypes. […] All six cell lines also secrete as well as respond to TGFβ, a regulator of cell motility that plays a role in PCa cell invasiveness.
# Assays were conducted using methods as described in Craft et al. (2008, Mol. Pharmocol., 73(1):235-242; herein incorporated by reference in its entirety).
# [7] = system: MMP-2; test: Phase 2 trial: MMP-2 transcript levels by LCM and qRT/PCR; format: in vivo, human; conditions: normal prostate epithelial cells, 2 mg genistein/kg/day, normalized to GAPDH
# [8] = men, 2 mg genistein/kg/day for 1 month
# [9] = system: prostate epithelial cells; test: Phase 2 trial: LCM and 12K gene array of prostate epithelial cells; format: in vivo, human
# Text: In particular, methodology was employed wherein prostate epithelial cells are selectively removed from human prostate tissue by laser capture microdissection (LCM), the resultant RNA linear amplified, and custom manufactured 12K gene arrays are probed. Ding, et al., Id.
# [10] = men, 2 to 8 mg genistein/kg; cited from earlier work
# [11] = system: p38 MAP kinase; test: Western blot of primary tumor tissue for p38 MAP kinase; format: in vivo, mice; conditions: fresh frozen primary tumor tissue
smiles,measurement,setting,value
O=c1c(-c2ccc(O)cc2)coc2cc(O)cc(O)c12 [genistein],increase in cell area,[1]; lymph node,19.5±2.1%
same,increase in cell length,[1]; lymph node,9.1±1.1%
same,increase in cell width,[1]; lymph node,9.5±1.1%
same,increase in cell length,[1]; primary tumor,3.0±1.1%
same,increase in length (nuclear morphology),[2],1.5±0.7%
same,increase in width (nuclear morphology),[2],2.7±0.7%
same,increase in area (nuclear morphology),[2]; only a trend,2.0±1.0%
same,TGFβ stimulated phosphorylation of MEK4,[3],does not block TGF-β stimulated phosphorylation of MEK4 itself; also recorded: does not block such phosphorylation
same,estimated free concentration,[4]; 100 mg cohort,29 nM
same,estimated free concentration,[4]; 250 mg cohort,131 nM
same,tumor volume,"[5]; 0, 100, 250 mg genistein/kg chow",but not tumor volume
same,weight of mice,[5]; between dosing cohorts,no difference in the weight of mice between cohorts
same,effect of genistein on invasiveness when MEK4 expression suppressed by siMEK4,"[6]; PCa cells, genistein plus siMEK4",the effect of genistein was abrogated
same,invasion of PCa cells,"[6]; early and late stage PCa cell lines, presence of genistein",inhibits invasion of both early and late stage PCa cells
same,"MMP-2 transcript level, percent of controls (mean±SEM)",[7],24±4.1%
same,"trough concentration of free genistein, mean±SEM",[8],26.6 ± 6.6 nM
same,"gene array expression level, mean (SE)","[9]; MALATI, genistein-treated subjects",8.22 (0.87)
same,"gene array expression level, mean (SE)","[9]; brain acid-soluble protein 1, genistein-treated subjects",13.3 (0.34)
same,"gene array expression level, mean (SE)","[9]; heat shock protein 90, genistein-treated subjects",8.51 (0.5)
same,"gene array expression level, mean (SE)","[9]; heparin cofactor II, genistein-treated subjects",2.19 (0.21)
same,"gene array expression level, mean (SE)","[9]; prostate acid phosphatase, genistein-treated subjects",6.85 (0.49)
same,"gene array expression level, mean (SE)","[9]; sorbitol dehydrogenase, genistein-treated subjects",5.33 (0.59)
same,peak concentration of total genistein,[10],4.3 to 16.3 nM
same,level of total p38 MAP kinase protein,[11],total amount of p38 MAP kinase increased
same,phosphorylation of p38 MAP kinase,[11],decreasing phosphorylation of p38 MAP kinase; also recorded: decreased its phosphorylation
